Experimental data reported in patent publication US9790189B2, “Disubstituted 5-fluoro pyrimidine derivatives containing a sulfondiimine group” (Bayer Pharma Aktiengesellschaft, priority 2014, dated 2017).
Converted amounts (≈) assume the structure as drawn. Where two headings read alike, the source gives them in different places.

Legend:
CDK2/CycE [1] = biological target: T1, CDK2/CycE (Homo sapiens, UniProt P24941); experiment: CDK2/CycE kinase assay (TR-FRET, Method 2a)
CDK2/CycE [2] = biological target: T1, CDK2/CycE; experiment: CDK2/CycE high ATP kinase assay (TR-FRET, Method 2b)
[3] = Caco-2 permeation assay (Method 5); format: in vitro ADME; conditions: human; for Papp A→B at 2 h, 2 µM / Papp B→A at 2 h, 2 µM: pH 7.2, Caco-2, 2 μM test compound; for Papp A→B at 2 h, 2 µM: read-out: Papp A−B (Mari); for Papp B→A at 2 h, 2 µM: read-out: Papp B−A (Mari)
Description: Cells were maintained at 37° C. in a humidified 5% CO2 atmosphere. Medium was changed every 2-3 day. Before running the permeation assay, the culture medium was replaced by a FCS-free hepes-carbonate transport buffer (pH 7.2). For assessment of monolayer integrity the transepithelial electrical resistance (TEER) was measured. Test compounds were predissolved in DMSO and added either to the apical or basolateral compartment in final concentration of 2 μM in transport buffer. Before and after 2 h incubation at 37° C. samples were taken from both compartments. Analysis of compound content was done after precipitation with methanol by LC/MS/MS analysis. Permeability (Papp) was calculated in the apical to basolateral (A→B) and basolateral to apical (B→A) directions. […] The efflux ratio basolateral (B) to apical (A) was calculated by dividing the Papp B−A by the Papp A−B. In addition the compound recovery was calculated.

A2780 cells = experiment: Proliferation assay, A2780 (crystal violet); format: cell-based; conditions: Homo sapiens, 96 h; A2780, 4 days; read-out: Inhibition of A2780 cell proliferation IC50
Description: (§1) Cultivated tumour cells (HeLa, human cervical tumour cells, ATCC CCL-2; NCI-H460, human non-small cell lung carcinoma cells, ATCC HTB-177; A2780, human ovarian carcinoma cells, ECACC #93112519; DU 145, hormone-independent human prostate carcinoma cells, ATCC HTB-81; HeLa-MaTu-ADR, multidrug-resistant human cervical carcinoma cells, EPO-GmbH Berlin; Caco-2, human colorectal carcinoma cells, ATCC HTB-37; B16F10, mouse melanoma cells, ATCC CRL-6475) were plated at a density of 5,000 cells/well (DU145, HeLa-MaTu-ADR), 3,000 cells/well (NCI-H460, HeLa), 2,500 cells/well (A2780), 1,500 cells/well (Caco-2), or 1,000 cells/well (B16F10) in a 96-well multititer plate in 200 μL of their respective growth medium supplemented 10% fetal calf serum. After 24 hours, the cells of one plate (zero-point plate) were stained with crystal violet (see below), while the medium of the other plates was replaced by fresh culture medium (200 μl), to which the test substances were added in various concentrations (0 μM, as well as in the range of 0.001-10 μM; the final concentration of the solvent dimethyl sulfoxide was 0.5%). The cells were incubated for 4 days in the presence of test substances. Cell proliferation was determined by staining the cells with crystal violet: the cells were fixed by adding 20 μl/measuring point of an 11% glutaric aldehyde solution for 15 minutes at room temperature. After three washing cycles of the fixed cells with water, the plates were dried at room temperature. The cells were stained by adding 100 μl/measuring point of a 0.1% crystal violet solution (pH 3.0). After three washing cycles of the stained cells with water, the plates were dried at room temperature. The dye was dissolved by adding 100 μl/measuring point of a 10% acetic acid solution. The extinction was determined by photometry at a wavelength of 595 nm. The change of cell number, in percent, was calculated by normalization of the measured values to the extinction values of the zero-point plate (=0%) and the extinction of the untreated (0 μm) cells (=100%).

HeLa cells = experiment: Proliferation assay, HeLa (crystal violet); format: cell-based; conditions: Homo sapiens, 96 h, 4 days, read-out: Inhibition of HeLa cell proliferation IC50
Description: as §1

MOLM-13 cells = experiment: Proliferation assay, MOLM-13 (Cell Titre-Glo); format: cell-based; conditions: Homo sapiens; MOLM-13, 72-hour exposure; read-out: Inhibition of MOLM-13 cell proliferation IC50
Description: Non-adherent MOLM-13 human acute myeloid leukemia cells (DSMZ ACC 554) were seeded at a density of 5,000 cells/well in a 96-well multititer plate in 100 μL of growth medium supplemented 10% fetal calf serum. After 24 hours, cell viability of one plate (zero-point plate) was determined with the Cell Titre-Glo Luminescent Cell Viability Assay (Promega), while 50 μL of test compound containing medium was added to the wells of the other plates (final concentrations in the range of 0.001-10 μM and DMSO controls; the final concentration of the solvent dimethyl sulfoxide was 0.5%). Cell viability was assessed after 72-hour exposure with the Cell Titre-Glo Luminescent Cell Viability Assay (Promega).

CDK9/CycT1 [4] = biological target: T2, CDK9/CycT1 (Homo sapiens, UniProt P50750)
[5] = Equilibrium shake flask solubility, high throughput from DMSO solution (Method 4a); format: physicochemical; conditions: phosphate buffer pH 6.5 with 1% DMSO, aqueous buffer, phosphate buffer pH 6.5, 24 hrs, room temperature
Source text: 4. Equilibrium Shake Flask Solubility Assays:
4a) High Throughput Determination of Aqueous Drug Solubility (100 mmolar in DMSO)
The high throughput screening method to determine aqueous drug solubility is based on:
Thomas Onofrey and Greg Kazan, Performance and correlation of a 96-well high throughput screening method to determine aqueous drug solubility, http://www.millipore.com/publications.nsf/a73664f9f981af8c852569b9005b4eee/e565516fb76e7435852 56da30052db77/$FILE/AN1731EN00.pdf
The assay was run in a 96-well plate format. Each well was filled with an individual compound.
All pipetting steps were performed using a robot platform.
100 μl of a 10 mmolar solution of drug in DMSO were concentrated by vacuum centrifugation and resolved in 10 μl DMSO. 990 μl phosphate buffer pH 6.5 were added. The content of DMSO amounts to 1%. The multititer plate was put on a shaker and mixed for 24 hrs at room temperature. 150 μl of the suspension were transferred to a filtration plate. After filtration using a vacuum manifold the filtrate was diluted 1:400 and 1:8000. A second microtiter plate with 20 μl of a 10 mM solution of drug in DMSO served for calibration. Two concentrations (0.005 μM and 0.0025 μM) were prepared by dilution in DMSO/water 1:1 and used for calibration. Filtrate and calibration plates were quantified by HPLC-MS/MS.
Preparation of 0.1 m Phosphate Buffer pH 6.5:
61.86 g NaCl and 39.54 mg KH2PO4 were solved in water and filled up to […]. The mixture was diluted 1:10 with water and the pH adjusted to 6.5 by NaOH.
Materials: • Millipore MultiScreenHTS-HV Plate 0.45 μm
Chromatographic conditions were as follows: • HPLC column: Ascentis Express C18 2.7 μm 4.6×30 mm • Injection volume: 1 μl • Flow: 1.5 ml/min • Mobile phase: acidic gradient • A: Water/0.05% HCOOH • B: Acetonitrile/0.05% HCOOH • 0 min→95% A 5% B • 0.75 min→5% A 95% B • 2.75 min→5% A 95% B • 2.76 min→95% A 5% B • 3 min→95% A 5% B
The areas of sample- and calibration injections were determined by using mass spectromety software (AB SCIEX: Discovery Quant 2.1.3. and Analyst 1.6.1). The calculation of the solubility value (in mg/l) was executed by an inhouse developed Excel macro.

CDK9/CycT1 [6] = biological target: T2, CDK9/CycT1; experiment: CDK9/CycT1 kinase assay (TR-FRET, Method 1a)
HeLa-MaTu-ADR cells = experiment: Proliferation assay, HeLa-MaTu-ADR (crystal violet); format: cell-based; conditions: Homo sapiens, 96 h, 4 days, read-out: Inhibition of HeLa-MaTu-ADR cell proliferation IC50
Description: as §1

B16F10 cells = experiment: Proliferation assay, B16F10 (crystal violet); format: cell-based; conditions: Mus musculus, B16-F10, 96 h; B16F10, 4 days; read-out: Inhibition of B16F10 cell proliferation IC50
Description: as §1

NCI-H460 cells = experiment: Proliferation assay, NCI-H460 (crystal violet); format: cell-based; conditions: Homo sapiens, 96 h; NCI-H460, 4 days; read-out: Inhibition of NCI-H460 cell proliferation IC50
Description: as §1

Caco-2 cells = experiment: Proliferation assay, Caco-2 (crystal violet); format: cell-based; conditions: Homo sapiens, 96 h; Caco-2, 4 days; read-out: Inhibition of Caco-2 cell proliferation IC50
Description: as §1

DU145 cells = experiment: Proliferation assay, DU145 (crystal violet); format: cell-based; conditions: Homo sapiens, DU-145, 96 h; DU145, 4 days; read-out: Inhibition of DU145 cell proliferation IC50
Description: as §1

T2 sequence (P50750 whole entry): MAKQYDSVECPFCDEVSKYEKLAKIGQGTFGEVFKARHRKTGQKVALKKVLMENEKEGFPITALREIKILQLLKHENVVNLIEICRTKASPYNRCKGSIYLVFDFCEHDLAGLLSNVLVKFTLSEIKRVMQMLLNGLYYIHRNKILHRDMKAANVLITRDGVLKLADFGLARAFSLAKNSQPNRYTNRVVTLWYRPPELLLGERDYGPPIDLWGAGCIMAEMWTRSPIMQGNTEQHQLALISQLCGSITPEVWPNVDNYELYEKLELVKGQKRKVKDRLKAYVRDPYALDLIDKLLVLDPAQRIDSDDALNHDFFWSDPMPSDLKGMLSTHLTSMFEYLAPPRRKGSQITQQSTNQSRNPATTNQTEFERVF
T2 sequence (O60563 whole entry partner): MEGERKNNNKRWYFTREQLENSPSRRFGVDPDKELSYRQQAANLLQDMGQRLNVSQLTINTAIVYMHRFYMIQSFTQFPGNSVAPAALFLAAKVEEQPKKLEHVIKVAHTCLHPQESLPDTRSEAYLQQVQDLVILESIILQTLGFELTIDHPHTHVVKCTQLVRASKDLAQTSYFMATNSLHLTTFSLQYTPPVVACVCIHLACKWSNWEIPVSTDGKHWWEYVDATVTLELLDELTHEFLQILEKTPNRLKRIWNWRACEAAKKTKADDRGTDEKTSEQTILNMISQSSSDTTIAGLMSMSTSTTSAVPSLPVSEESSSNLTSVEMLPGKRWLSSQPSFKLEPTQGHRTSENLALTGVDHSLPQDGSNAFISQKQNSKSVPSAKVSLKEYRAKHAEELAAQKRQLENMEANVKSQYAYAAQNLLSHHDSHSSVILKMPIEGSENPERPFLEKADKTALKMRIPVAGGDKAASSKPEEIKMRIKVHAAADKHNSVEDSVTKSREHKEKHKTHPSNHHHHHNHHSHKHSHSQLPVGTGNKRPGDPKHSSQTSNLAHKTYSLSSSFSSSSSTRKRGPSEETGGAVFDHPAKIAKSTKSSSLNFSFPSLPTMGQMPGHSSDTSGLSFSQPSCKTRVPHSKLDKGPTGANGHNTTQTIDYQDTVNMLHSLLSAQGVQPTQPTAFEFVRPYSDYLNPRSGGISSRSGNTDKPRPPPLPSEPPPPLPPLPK

SMILES | IC50 (CDK2/CycE [1]) | IC50 (CDK2/CycE [2]) | efflux ratio at 2 h, 2 µM ([3]; Caco-2, pH 7.2) | Papp A→B at 2 h, 2 µM [3] | Papp B→A at 2 h, 2 µM [3] | IC50 (A2780 cells) | IC50 (HeLa cells) | IC50 (MOLM-13 cells) | IC50 (CDK9/CycT1 [4]) | Selectivity high ATP CDK9 over high ATP CDK2: IC50 (high ATP CDK2)/IC50 (high ATP CDK9) (CDK9/CycT1 [4]; Methods 1b and 2b) | solubility thermodynamic at 24 h [5] | IC50 (CDK9/CycT1 [6]) | Selectivity CDK9 over CDK2: IC50 (CDK2)/IC50 (CDK9) (CDK9/CycT1 [6]; Methods 1a and 2a) | IC50 (HeLa-MaTu-ADR cells) | IC50 (B16F10 cells) | IC50 (NCI-H460 cells) | IC50 (Caco-2 cells) | IC50 (DU145 cells)
CS(=N)(=N)Cc1cc(Nc2ncc(F)c(-c3ccc(F)cc3F)n2)cc(S(F)(F)(F)(F)F)c1 [Example 7, 4-(2,4-Difluorophenyl)-5-fluoro-N-{3-[(S-methylsulfonodiimidoyl)methyl]-5-(pentafluoro-λ^6-sulfanyl)phenyl}pyrimidin-2-amine] | 2300 nM | ≥ 20000 nM | 1.1 | 3.21 ×10⁻⁶ cm/s | 3.57 ×10⁻⁶ cm/s | 337 nM | 346 nM | 244 nM | 26 nM | 769 | 1.2 µg/mL (≈ 2.32 µM) | 17 nM | 135 | – | – | – | – | –
COc1cc(F)ccc1-c1nc(Nc2cc(F)cc(CS(C)(=N)=Nc3ccccc3)c2)ncc1F (racemic) [Example 3, (rac)-5-Fluoro-4-(4-fluoro-2-methoxyphenyl)-N-{3-fluoro-5-[(S-methyl-N-phenylsulfonodiimidoyl)methyl]phenyl}pyrimidin-2-amine] | 1400 nM | – | – | – | – | 548 nM | 991 nM | – | – | – | 1.4 µg/mL (≈ 2.81 µM) | – | – | 863 nM | 1270 nM | 1090 nM | 1000 nM | 1050 nM
COc1cc(F)ccc1-c1nc(Nc2cc(CS(C)(=N)=N)cc(S(F)(F)(F)(F)F)c2)ncc1F [Example 8, 5-Fluoro-4-(4-fluoro-2-methoxyphenyl)-N-{3-[(S-methylsulfonodiimidoyl)methyl]-5-(pentafluoro-λ^6-sulfanyl)phenyl}pyrimidin-2-amine] | 400 nM | 2990 nM | – | 3.33 ×10⁻⁶ cm/s | 5.19 ×10⁻⁶ cm/s | – | 104 nM | 36 nM | – | – | 2.2 µg/mL (≈ 4.15 µM) | – | – | 194 nM | 237 nM | 149 nM | 144 nM | 130 nM
COc1cc(F)ccc1-c1nc(Nc2cc(F)cc(CS(C)(=N)=NCCCO)c2)ncc1F (racemic) [Example 6, (rac)-3-{[(3-Fluoro-5-{[5-fluoro-4-(4-fluoro-2-methoxyphenyl)pyrimidin-2-yl]amino}benzyl)(imino)methyl-λ^6-sulfanylidene]amino}propan-1-ol] | 970 nM | 19800 nM | – | – | – | – | 507 nM | – | – | – | 259 µg/mL (≈ 540 µM) | – | – | – | – | – | – | –
C#CCN=S(C)(=N)Cc1cc(F)cc(Nc2ncc(F)c(-c3ccc(F)cc3OC)n2)c1 (racemic) [Example 4, (rac)-5-Fluoro-4-(4-fluoro-2-methoxyphenyl)-N-(3-fluoro-5-{[S-methyl-N-(prop-2-yn-1-yl)sulfonodiimidoyl]methyl}phenyl)pyrimidin-2-amine] | 580 nM | 4290 nM | – | – | – | 355 nM | 535 nM | – | – | – | – | – | – | 696 nM | 1130 nM | 935 nM | 847 nM | 581 nM
COc1cc(F)ccc1-c1nc(Nc2cc(F)cc(CS(C)(=N)=NC#N)c2)ncc1F (racemic) [Example 5, (rac)-[(3-Fluoro-5-{[5-fluoro-4-(4-fluoro-2-methoxyphenyl)pyrimidin-2-yl]amino}benzyl)(imino)methyl-λ^6-sulfanylidene]cyanamide] | 190 nM | 1470 nM | – | 2.88 ×10⁻⁶ cm/s | 19.9 ×10⁻⁶ cm/s | 35 nM | 73 nM | – | – | – | – | – | – | 80 nM | 122 nM | 193 nM | 94 nM | 42 nM
CN=S(C)(=N)Cc1cc(F)cc(Nc2ncc(F)c(-c3ccc(F)cc3OC)n2)c1 (racemic) [Example 2, (rac)-N-{3-[(N,S-Dimethylsulfonodiimidoyl)methyl]-5-fluorophenyl}-5-fluoro-4-(4-fluoro-2-methoxyphenyl)pyrimidin-2-amine] | 1300 nM | 13000 nM | – | – | – | 333 nM | 412 nM | – | – | – | 97 µg/mL (≈ 223 µM) | – | – | 793 nM | 1120 nM | 968 nM | 849 nM | 636 nM
